Data: the supplement of paper PMC10627819

Experiments:
S. aureus Newman [1] = assay: fitness (endpoint OD595 vs no drug) (fraction); higher = more growth
In short: (§1)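 Bacterial growth was followed in 384-well plates seeded at OD595 0.01, with 30 µl per well, or 55 µl for S. pneumoniae, in TSB, LB Lennox or CY at 37 °C. OD595 was read every 30 min for 14 h, and each reading had the first reading subtracted as background. Fitness is the background-corrected optical density at entry into stationary phase divided by the robust mean of the no-drug control wells. This ratio is capped at 1.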

S. pneumoniae D39V [2] = assay: as above
In short: as §1

B. subtilis 168 [3] = assay: Bliss interaction score (quartile over a dose matrix) (fitness difference); higher = more antagonism (negative = synergy)
In short: (§2)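 The Bliss score subtracts expected fitness, the product of the single-drug fitness values, from observed fitness. Fitness is plate-normalised OD595 at entry into stationary phase, relative to the robust no-drug mean and capped at 1, with single-drug fitness inferred from combinations. Summaries are quartiles over technical, biological and donor/recipient replicates.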

S. aureus DSM 20231 = assay: as above
In short: as §2

S. aureus Newman [4] = assay: as above
In short: as §2

S. pneumoniae D39V [5] = assay: as above
In short: as §2

B. subtilis 168 [6] = assay: fitness (endpoint OD595 vs no drug) (fraction); higher = more growth
In short: as §1

[7] = first compound 0.125 µg/mL, partner 0.125 µg/mL, one replicate
[8] = first compound 0.25 µg/mL, partner 0.125 µg/mL, one replicate
[9] = first compound 0.5 µg/mL, partner 0.125 µg/mL, one replicate
[10] = first compound 0.5 µg/mL, partner 0.25 µg/mL, one replicate
[11] = first compound 0.5 µg/mL, partner 0.5 µg/mL, one replicate
[12] = first compound 0.25 µg/mL, partner 0.039 µg/mL
[13] = first compound 0.25 µg/mL, partner 0.078 µg/mL
[14] = first compound 0.25 µg/mL, partner 0.156 µg/mL
[15] = first compound 0.5 µg/mL, partner 0.039 µg/mL
[16] = first compound 0.5 µg/mL, partner 0.078 µg/mL
[17] = first compound 0.5 µg/mL, partner 0.156 µg/mL
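For Bliss interaction score (quartile over a dose matrix) in this document: first quartile when negative (synergy) and third quartile when positive (antagonism).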

For `CC1=C(C(=O)O)N2C(=O)[C@@H](NC(=O)[C@H](N)c3ccccc3)[C@H]2SC1` [Cephalexin] + CN[C@H](CC(C)C)C(=O)N[C@H]1C(=O)N[C@@H](CC(N)=O)C(=O)N[C@H]2C(=O)N[C@H]3C(=O)N[C@H](C(=O)N[C@H](C(=O)O)c4cc(O)cc(O)c4-c4cc3ccc4O)[C@H](O)c3ccc(c(Cl)c3)Oc3cc2cc(c3O[C@@H]2O[C@H](CO)[C@@H](O)[C@H](O)[C@H]2O[C@H]2C[C@](C)(N)[C@H](O)[C@H](C)O2)Oc2ccc(cc2Cl)[C@H]1O [Vancomycin], the fitness (S. aureus Newman [1]; first compound 0.25 µg/mL, partner 0.1875 µg/mL) was at least 1, the fitness (S. aureus Newman [1]; first compound 0.25 µg/mL, partner 0.375 µg/mL) was 0.997 and the fitness (S. aureus Newman [1]; first compound 0.25 µg/mL, partner 0.75 µg/mL) was at least 1. It also gave a fitness (S. aureus Newman [1]; first compound 0.5 µg/mL, partner 0.1875 µg/mL) of 0.997, a fitness (S. aureus Newman [1]; first compound 0.5 µg/mL, partner 0.375 µg/mL) of at least 1 and a fitness (S. aureus Newman [1]; first compound 0.5 µg/mL, partner 0.75 µg/mL) of at least 1. For the same compound, the fitness (S. aureus Newman [1]; first compound 1 µg/mL, partner 0.1875 µg/mL) was at least 1, the fitness (S. aureus Newman [1]; first compound 1 µg/mL, partner 0.375 µg/mL) was at least 1 and the fitness (S. aureus Newman [1]; first compound 1 µg/mL, partner 0.75 µg/mL) was at least 1. It also gave a fitness (S. pneumoniae D39V [2]; [7]) of 0.824, a fitness (S. pneumoniae D39V [2]; first compound 0.125 µg/mL, partner 0.25 µg/mL, one replicate) of 0.165 and a fitness (S. pneumoniae D39V [2]; first compound 0.125 µg/mL, partner 0.5 µg/mL, one replicate) of 0.0735. It also gave a fitness (S. pneumoniae D39V [2]; [8]) of 0.936, a fitness (S. pneumoniae D39V [2]; first compound 0.25 µg/mL, partner 0.25 µg/mL, one replicate) of 0.383 and a fitness (S. pneumoniae D39V [2]; first compound 0.25 µg/mL, partner 0.5 µg/mL, one replicate) of 0.0702. It also gave a fitness (S. pneumoniae D39V [2]; [9]) of at least 1, a fitness (S. pneumoniae D39V [2]; [10]) of 0.428 and a fitness (S. pneumoniae D39V [2]; [11]) of 0.105. The fitness (S. pneumoniae D39V [2]; first compound 1 µg/mL, partner 0.125 µg/mL) was 0.282, the fitness (S. pneumoniae D39V [2]; first compound 2 µg/mL, partner 0.03125 µg/mL) was 0.0634 and the fitness (S. pneumoniae D39V [2]; first compound 2 µg/mL, partner 0.0625 µg/mL) was 0.0312. It also gave a fitness (S. pneumoniae D39V [2]; first compound 2 µg/mL, partner 0.125 µg/mL) of 0.0467, a fitness (S. pneumoniae D39V [2]; first compound 4 µg/mL, partner 0.03125 µg/mL) of 0.0468 and a fitness (S. pneumoniae D39V [2]; first compound 4 µg/mL, partner 0.0625 µg/mL) of 0.0227. It also gave a fitness (S. pneumoniae D39V [2]; first compound 4 µg/mL, partner 0.125 µg/mL) of 0.0467, a Bliss interaction score (B. subtilis 168 [3]) of -0.0548 and a Bliss interaction score (S. aureus DSM 20231) of 0.0385. It also gave a Bliss interaction score (S. aureus Newman [4]) of 0.0402 and a Bliss interaction score (S. pneumoniae D39V [5]) of -0.207.
For `CC[C@H]1OC(=O)[C@H](C)[C@@H](O[C@H]2C[C@@](C)(OC)[C@@H](O)[C@H](C)O2)[C@H](C)[C@@H](O[C@@H]2O[C@H](C)C[C@H](N(C)C)[C@H]2O)[C@](C)(O)C[C@@H](C)CN(C)[C@H](C)[C@@H](O)[C@]1(C)O` [Azithromycin] + CN(C)c1cc(NC(=O)CNC(C)(C)C)c(O)c2c1C[C@H]1C[C@H]3[C@H](N(C)C)C(O)=C(C(N)=O)C(=O)[C@@]3(O)C(O)=C1C2=O [Tigecycline], the fitness (B. subtilis 168 [6]; [12]) was 0.979, the fitness (B. subtilis 168 [6]; [13]) was 0.873 and the fitness (B. subtilis 168 [6]; [14]) was 0.887. For the same compound, the fitness (B. subtilis 168 [6]; [15]) was 0.886, the fitness (B. subtilis 168 [6]; [16]) was 0.811 and the fitness (B. subtilis 168 [6]; [9]) was 0.894. The fitness (B. subtilis 168 [6]; [17]) was 0.839, the fitness (B. subtilis 168 [6]; [10]) was 0.889 and the fitness (B. subtilis 168 [6]; [11]) was 0.941. For the same compound, the fitness (B. subtilis 168 [6]; first compound 1 µg/mL, partner 0.125 µg/mL, one replicate) was 0.947, the fitness (B. subtilis 168 [6]; first compound 1 µg/mL, partner 0.25 µg/mL, one replicate) was 0.871 and the fitness (B. subtilis 168 [6]; first compound 1 µg/mL, partner 0.5 µg/mL, one replicate) was 0.826. For the same compound, the fitness (B. subtilis 168 [6]; first compound 2 µg/mL, partner 0.125 µg/mL, one replicate) was 0.614, the fitness (B. subtilis 168 [6]; first compound 2 µg/mL, partner 0.25 µg/mL, one replicate) was 0.48 and the fitness (B. subtilis 168 [6]; first compound 2 µg/mL, partner 0.5 µg/mL, one replicate) was 0.332. It also gave a fitness (S. aureus Newman [1]; first compound 0.125 µg/mL, partner 0.039 µg/mL) of 0.892, a fitness (S. aureus Newman [1]; first compound 0.125 µg/mL, partner 0.078 µg/mL) of 0.908 and a fitness (S. aureus Newman [1]; first compound 0.125 µg/mL, partner 0.156 µg/mL) of 0.855. For the same compound, the fitness (S. aureus Newman [1]; [12]) was 0.88, the fitness (S. aureus Newman [1]; [13]) was 0.868 and the fitness (S. aureus Newman [1]; [14]) was 0.912. For the same compound, the fitness (S. aureus Newman [1]; [15]) was 0.641, the fitness (S. aureus Newman [1]; [16]) was 0.666 and the fitness (S. aureus Newman [1]; [17]) was 0.622. It also gave a Bliss interaction score (B. subtilis 168 [3]) of 0.0692, a Bliss interaction score (S. aureus DSM 20231) of -0.0977 and a Bliss interaction score (S. aureus Newman [4]) of -0.0615. For the same compound, the Bliss interaction score (S. pneumoniae D39V [5]) was -0.0801.
`CC[C@H]1OC(=O)[C@H](C)[C@@H](O[C@H]2C[C@@](C)(OC)[C@@H](O)[C@H](C)O2)[C@H](C)[C@@H](O[C@@H]2O[C@H](C)C[C@H](N(C)C)[C@H]2O)[C@](C)(O)C[C@@H](C)CN(C)[C@H](C)[C@@H](O)[C@]1(C)O` [Azithromycin] + C/C(=C\C(=O)OCCCCCCCCC(=O)O)C[C@@H]1OC[C@H](C[C@@H]2O[C@H]2[C@@H](C)[C@H](C)O)[C@@H](O)[C@H]1O [Pseudomonic acid] showed a fitness (S. aureus Newman [1]; first compound 0.125 µg/mL, partner 0.0313 µg/mL, one replicate) of 0.0547, a fitness (S. aureus Newman [1]; first compound 0.125 µg/mL, partner 0.0625 µg/mL, one replicate) of 0.0262 and a fitness (S. aureus Newman [1]; [7]) of 0.0288. For the same compound, the fitness (S. aureus Newman [1]; first compound 0.25 µg/mL, partner 0.0313 µg/mL, one replicate) was 0.0237, the fitness (S. aureus Newman [1]; first compound 0.25 µg/mL, partner 0.0625 µg/mL, one replicate) was 0.0139 and the fitness (S. aureus Newman [1]; [8]) was 0.0141. For the same compound, the fitness (S. aureus Newman [1]; first compound 0.5 µg/mL, partner 0.0313 µg/mL, one replicate) was 0, the fitness (S. aureus Newman [1]; first compound 0.5 µg/mL, partner 0.0625 µg/mL, one replicate) was 0.0154 and the fitness (S. aureus Newman [1]; [9]) was 0.0119. It also gave a Bliss interaction score (B. subtilis 168 [3]) of -0.0541, a Bliss interaction score (S. aureus DSM 20231) of -0.0221 and a Bliss interaction score (S. aureus Newman [4]) of -0.0303. The Bliss interaction score (S. pneumoniae D39V [5]) was -0.0833.
Compound `CNC(C)C1CCC(N)C(OC2C(N)CC(N)C(OC3OCC(C)(O)C(NC)C3O)C2O)O1` (configuration not stated) [Gentamicin] + C/C(=C\C(=O)OCCCCCCCCC(=O)O)C[C@@H]1OC[C@H](C[C@@H]2O[C@H]2[C@@H](C)[C@H](C)O)[C@@H](O)[C@H]1O [Pseudomonic acid] has a fitness (S. aureus Newman [1]; first compound 1 µg/mL, partner 0.0313 µg/mL, one replicate, main component drawn) of 0.0474, a fitness (S. aureus Newman [1]; first compound 1 µg/mL, partner 0.0625 µg/mL, one replicate, main component drawn) of 0.0311 and a fitness (S. aureus Newman [1]; first compound 1 µg/mL, partner 0.125 µg/mL, one replicate, main component drawn) of 0.0416. For the same compound, the fitness (S. aureus Newman [1]; first compound 2 µg/mL, partner 0.0313 µg/mL, one replicate, main component drawn) was 0.0502, the fitness (S. aureus Newman [1]; first compound 2 µg/mL, partner 0.0625 µg/mL, one replicate, main component drawn) was 0.0417 and the fitness (S. aureus Newman [1]; first compound 2 µg/mL, partner 0.125 µg/mL, one replicate, main component drawn) was 0.0314. For the same compound, the fitness (S. aureus Newman [1]; first compound 4 µg/mL, partner 0.0313 µg/mL, one replicate, main component drawn) was 0.0545, the fitness (S. aureus Newman [1]; first compound 4 µg/mL, partner 0.0625 µg/mL, one replicate, main component drawn) was 0.0388 and the fitness (S. aureus Newman [1]; first compound 4 µg/mL, partner 0.125 µg/mL, one replicate, main component drawn) was 0.0572. It also gave a fitness (S. pneumoniae D39V [2]; first compound 2 µg/mL, partner 0.03 µg/mL, main component drawn) of 0.922, a fitness (S. pneumoniae D39V [2]; first compound 2 µg/mL, partner 0.06 µg/mL, main component drawn) of 0.727 and a fitness (S. pneumoniae D39V [2]; first compound 2 µg/mL, partner 0.12 µg/mL, main component drawn) of 0.396. The fitness (S. pneumoniae D39V [2]; first compound 4 µg/mL, partner 0.03 µg/mL, main component drawn) was 0.923, the fitness (S. pneumoniae D39V [2]; first compound 4 µg/mL, partner 0.06 µg/mL, main component drawn) was 0.769 and the fitness (S. pneumoniae D39V [2]; first compound 4 µg/mL, partner 0.12 µg/mL, main component drawn) was 0.393. For the same compound, the fitness (S. pneumoniae D39V [2]; first compound 8 µg/mL, partner 0.03 µg/mL, main component drawn) was 0.881, the fitness (S. pneumoniae D39V [2]; first compound 8 µg/mL, partner 0.06 µg/mL, main component drawn) was 0.673 and the fitness (S. pneumoniae D39V [2]; first compound 8 µg/mL, partner 0.12 µg/mL, main component drawn) was 0.323. It also gave a Bliss interaction score (B. subtilis 168 [3]; main component drawn) of 0.0456, a Bliss interaction score (S. aureus DSM 20231; main component drawn) of 0.0111 and a Bliss interaction score (S. aureus Newman [4]; main component drawn) of 0.0245. It also gave a Bliss interaction score (S. pneumoniae D39V [5]; main component drawn) of -0.134.
